Assays:
[1] = DPPH free radical-scavenging assay; settings: 200 µM compound, DPPH 110 µM, 30 min
Protocol: As described previously, radical-scavenging activity was assessed using the 2,2-diphenyl-1-picrylhydrazyl (DPPH) assay. Briefly, the mixture of different concentrations of the compounds and DPPH methanolic solution (110 µM) was shaken in the dark at room temperature for 30 min. The mixture absorbance was measured at 517 nm. Quercetin was used as the positive control.[25]

B16F10 melanoma cells [2] = test: MTT assay for cell viability; assay type: cell-based, murine; settings: concentrations ≤100 µM
Protocol: (§1) The cytotoxic activity of all derivatives was determined using the 3-(4,5-dimethylthiazol-2-yl)-2,5-diphenyltetrazolium bromide (MTT) assay. B16F10 were obtained from the Pasteur Institute of Iran (https://en.pasteur.ac.ir/). Cells (at a density of 25 000 cells per ml) were grown at 37 °C in the presence of CO2 5% in DMEM (Gibco BRL, Grand Island, NY, USA), 10% fetal bovine serum (FBS, Gibco BRL). Next, cells were seeded in a 96-well plate and incubated at 37 °C with the derivative at different concentrations for 72 h. Following treatment, cells were incubated with MTT (0.5 mg mL^−1) for 3 h. The MTT-containing medium was then removed, and 100 µL of DMSO was added to each well, mixed thoroughly with a 10-minute shake to dissolve the formazan crystals. The absorbance of each well was measured at 540 nm.[28]

[3] = MTT assay for cell viability; assay type: cell-based, murine; settings: mouse, B16F10 melanoma cells, MTT, 72 h, read-out: % Viability ± SE
Protocol: as §1

B16F10 melanoma cells [4] = test: Melanin content assay; assay type: cell-based, murine; settings: α-MSH 100 nM, 70 µM compound, 48 h, untreated control 92 µg mL^−1
Protocol: The melanin content assay was performed according to previously reported protocols with minor modifications. Briefly, B16F10 cells were seeded in 12-well plates at a density of 50 000 cells per well. After 24 hours of incubation, 100 nM α-MSH was added to each well, followed by the addition of compound 9i five hours later. The plates were then incubated for an additional 48 hours. Subsequently, the cells were washed twice with PBS and harvested using […]. The cell pellets were dissolved in 200 µL of 1 N NaOH containing 10% DMSO and incubated at 80 °C for 2 hours to solubilize the melanin. The absorbance of the resulting supernatant was measured at […] using a microplate reader. The melanin content was quantified using a calibration curve constructed from synthetic melanin standards, measured at 405 nm. Kojic acid was used as a positive control for comparison.[29]

mushroom tyrosinase = mushroom tyrosinase (Agaricus bisporus, UniProt C7FF04); test: Enzyme kinetic study / determination of the inhibition type (Lineweaver–Burk); assay type: biochemical; settings: Lineweaver–Burk plot: Km increased, Vmax unchanged
Protocol: The substrate (L-DOPA) concentrations ranged from 0.5 to 2.8 mM according to the previously reported procedures.[24]

tyrosinase = settings: in Fig. 1; 13–15; read-out: IC50 against Tyrosinase; cited from earlier work

Sequence of mushroom tyrosinase (C7FF04 2-392): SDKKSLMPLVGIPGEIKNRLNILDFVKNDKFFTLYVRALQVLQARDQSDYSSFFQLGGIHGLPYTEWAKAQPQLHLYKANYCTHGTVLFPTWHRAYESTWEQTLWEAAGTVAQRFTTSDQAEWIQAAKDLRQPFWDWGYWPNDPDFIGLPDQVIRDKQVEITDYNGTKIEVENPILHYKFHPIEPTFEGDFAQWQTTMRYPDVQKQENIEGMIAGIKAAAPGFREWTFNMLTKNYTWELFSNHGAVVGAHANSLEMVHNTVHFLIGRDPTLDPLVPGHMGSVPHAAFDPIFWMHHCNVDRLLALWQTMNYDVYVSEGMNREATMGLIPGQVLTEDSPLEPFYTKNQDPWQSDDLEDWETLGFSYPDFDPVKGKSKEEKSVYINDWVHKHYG

Structure (SMILES) | DPPH radical scavenging % Inhibition at 200 µM [1] | also measured
O=C(C=Cc1ccccc1)NCc1cn(CC(=O)Nc2ccccc2)nn1 [Compound 9a, N-((1-(2-Oxo-2-(phenylamino)ethyl)-1H-1,2,3-triazol-4-yl)methyl)cinnamamide] | 23.64 ± 4.63% | –
O=C(C=Cc1ccccc1)NCc1cn(CC(=O)Nc2ccc(F)cc2)nn1 [Compound 9b, N-((1-(2-((4-Fluorophenyl)amino)-2-oxoethyl)-1H-1,2,3-triazol-4-yl)methyl)cinnamamide] | 64.18 ± 2.31% | –
O=C(C=Cc1ccccc1)NCc1cn(CC(=O)Nc2ccc(Cl)cc2)nn1 [Compound 9c, N-((1-(2-((4-Chlorophenyl)amino)-2-oxoethyl)-1H-1,2,3-triazol-4-yl)methyl)cinnamamide] | 36.91 ± 0.51% | –
O=C(C=Cc1ccccc1)NCc1cn(CC(=O)Nc2ccc(Br)cc2)nn1 [Compound 9d, N-((1-(2-((4-Bromophenyl)amino)-2-oxoethyl)-1H-1,2,3-triazol-4-yl)methyl)cinnamamide] | 41.09 ± 4.11% | –
CCc1ccc(NC(=O)Cn2cc(CNC(=O)C=Cc3ccccc3)nn2)cc1 [Compound 9e, N-((1-(2-((4-Ethylphenyl)amino)-2-oxoethyl)-1H-1,2,3-triazol-4-yl)methyl)cinnamamide] | 47.36 ± 1.93% | –
O=C(C=Cc1ccc(Cl)cc1)NCc1cn(CC(=O)Nc2ccccc2)nn1 [Compound 9f, 3-(4-Chlorophenyl)-N-((1-(2-oxo-2-(phenylamino)ethyl)-1H-1,2,3-triazol-4-yl)methyl)acrylamide] | 46.18 ± 1.54% | –
O=C(C=Cc1ccc(Cl)cc1)NCc1cn(CC(=O)Nc2ccc(F)cc2)nn1 [Compound 9g, 3-(4-Chlorophenyl)-N-((1-(2-((4-fluorophenyl)amino)-2-oxoethyl)-1H-1,2,3-triazol-4-yl)methyl)acrylamide] | 45.73 ± 3.47% | –
O=C(C=Cc1ccc(Cl)cc1)NCc1cn(CC(=O)Nc2ccc(Cl)cc2)nn1 [Compound 9h, 3-(4-Chlorophenyl)-N-((1-(2-((4-chlorophenyl)amino)-2-oxoethyl)-1H-1,2,3-triazol-4-yl)methyl)acrylamide] | 22.82 ± 0.90% | –
O=C(C=Cc1ccc(Cl)cc1)NCc1cn(CC(=O)Nc2ccc(Br)cc2)nn1 [Compound 9i, N-((1-(2-((4-Bromophenyl)amino)-2-oxoethyl)-1H-1,2,3-triazol-4-yl)methyl)-3-(4-chlorophenyl)acrylamide] | 51.82 ± 2.31% | Cytotoxicity to B16F10 melanoma cells (in words) (B16F10 melanoma cells [2]): low cytotoxicity; viability at 72 h, 100 µM ([3]; B16F10, 100 µM): > 80%; viability at 72 h, 150 µM ([3]; B16F10, 150 µM): 58.2 ± 3.43%; viability at 72 h, 200 µM ([3]; B16F10, 200 µM): 51.2 ± 4.34%; Intracellular melanin content (B16F10 melanoma cells [4]): 62 µg/mL; Inhibition type (mushroom tyrosinase): competitive inhibition
CCc1ccc(NC(=O)Cn2cc(CNC(=O)C=Cc3ccc(Cl)cc3)nn2)cc1 [Compound 9j, 3-(4-Chlorophenyl)-N-((1-(2-((4-ethylphenyl)amino)-2-oxoethyl)-1H-1,2,3-triazol-4-yl)methyl)acrylamide] | 82.36 ± 5.91% | –
COc1ccc(NC(=O)Cn2cc(CNC(=O)C=Cc3ccc(Cl)cc3)nn2)cc1 [Compound 9k, 3-(4-Chlorophenyl)-N-((1-(2-((4-methoxyphenyl)amino)-2-oxoethyl)-1H-1,2,3-triazol-4-yl)methyl)acrylamide] | 55.28 ± 0.16% | –
COc1ccc(C=CC(=O)NCc2cn(CC(=O)Nc3ccccc3)nn2)cc1 [Compound 9l, 3-(4-Methoxyphenyl)-N-((1-(2-oxo-2-(phenylamino)ethyl)-1H-1,2,3-triazol-4-yl)methyl)acrylamide] | 43.91 ± 4.50% | –
COc1ccc(C=CC(=O)NCc2cn(CC(=O)Nc3ccc(F)cc3)nn2)cc1 [Compound 9m, N-((1-(2-((4-Fluorophenyl)amino)-2-oxoethyl)-1H-1,2,3-triazol-4-yl)methyl)-3-(4-methoxyphenyl)acrylamide] | 60.18 ± 6.94% | –
COc1ccc(C=CC(=O)NCc2cn(CC(=O)Nc3ccc(Cl)cc3)nn2)cc1 [Compound 9n, N-((1-(2-((4-Chlorophenyl)amino)-2-oxoethyl)-1H-1,2,3-triazol-4-yl)methyl)-3-(4-methoxyphenyl)acrylamide] | 68.64 ± 7.33% | –
COc1ccc(C=CC(=O)NCc2cn(CC(=O)Nc3ccc(Br)cc3)nn2)cc1 [Compound 9o, N-((1-(2-((4-Bromophenyl)amino)-2-oxoethyl)-1H-1,2,3-triazol-4-yl)methyl)-3-(4-methoxyphenyl)acrylamide] | 57.09 ± 6.17% | –
CCc1ccc(NC(=O)Cn2cc(CNC(=O)C=Cc3ccc(OC)cc3)nn2)cc1 [Compound 9p, N-((1-(2-((4-Ethylphenyl)amino)-2-oxoethyl)-1H-1,2,3-triazol-4-yl)methyl)-3-(4 methoxyphenyl)acrylamide] | 40.73 ± 5.91% | –
COc1ccc(C=CC(=O)NCc2cn(CC(=O)Nc3ccc(OC)cc3)nn2)cc1 [Compound 9q, 3-(4-Methoxyphenyl)-N-((1-(2-((4-methoxyphenyl)amino)-2-oxoethyl)-1H-1,2,3-triazol-4-yl)methyl)acrylamide] | 61.51 ± 3.74% | –
NC(=S)N/N=C/c1ccc(OCc2cn(Cc3ccc(F)cc3)nn2)cc1 [D] | – | IC50 (tyrosinase): 220 nM
Clc1ccc(Cn2cc(COc3ccc(-c4nc5ccccc5[nH]4)cc3)nn2)cc1Cl [E] | – | IC50 (tyrosinase): 9420 nM
O=c1cc(Cn2cc(Oc3ccc4ccccc4c3)nn2)occ1O [F] | – | IC50 (tyrosinase): 300 nM

From PMC12516498, “Enzymatic, cell-based, and in silico evaluation of di-substituted aminomethyl-1,2,3-triazole–cinamamide hybrids as mushroom tyrosinase inhibitors” (RSC Advances, 2025)
